ChEMBL document CHEMBL3044763, “Inhibitory Activities of Rhodanine Derivatives on Plant Growth” (Biosci Biotechnol Biochem, 1996)

Experiments:
Format in all cases: functional
[1] = system: Brassica rapa subsp. oleifera; test: Growth inhibition of Brassica rapa subsp. oleifera assessed as total chlorophyll level at 3 x 10^-4 M after 7 days; parameters: scale not given: the % may be the effect or the level left
[2] = system: Brassica rapa subsp. oleifera; test: Growth inhibition of Brassica rapa subsp. oleifera assessed as chlorophyll a level at 3 x 10^-4 M after 7 days; parameters: scale not given: the % may be the effect or the level left
[3] = system: Brassica rapa subsp. oleifera; test: Growth inhibition of Brassica rapa subsp. oleifera assessed as chlorophyll b level at 3 x 10^-5 M after 7 days; parameters: scale not given: the % may be the effect or the level left
[4] = system: Brassica rapa subsp. oleifera; test: Growth inhibition of Brassica rapa subsp. oleifera assessed as root growth at 5 x 10^-5 M after 7 days
[5] = system: Brassica rapa subsp. oleifera; test: Growth inhibition of Brassica rapa subsp. oleifera assessed as chlorophyll a level at 1 x 10^-4 M after 7 days; parameters: scale not given: the % may be the effect or the level left
[6] = system: Brassica rapa subsp. oleifera; test: Growth inhibition of Brassica rapa subsp. oleifera assessed as root growth at 3 x 10^-5 M after 7 days
[7] = system: Brassica rapa subsp. oleifera; test: Growth inhibition of Brassica rapa subsp. oleifera assessed as total chlorophyll level at 1 x 10^-4 M after 7 days; parameters: scale not given: the % may be the effect or the level left
[8] = system: Brassica rapa subsp. oleifera; test: Growth inhibition of Brassica rapa subsp. oleifera assessed as chlorophyll b level at 3 x 10^-4 M after 7 days; parameters: scale not given: the % may be the effect or the level left
[9] = system: Brassica rapa subsp. oleifera; test: Growth inhibition of Brassica rapa subsp. oleifera assessed as root growth at 3 x 10^-4 M after 7 days
[10] = system: Brassica rapa subsp. oleifera; test: Growth inhibition of Brassica rapa subsp. oleifera assessed as chlorophyll a level at 3 x 10^-5 M after 7 days; parameters: scale not given: the % may be the effect or the level left
[11] = system: Brassica rapa subsp. oleifera; test: Growth inhibition of Brassica rapa subsp. oleifera assessed as chlorophyll b level at 5 x 10^-5 M after 7 days; parameters: scale not given: the % may be the effect or the level left
[12] = system: Brassica rapa subsp. oleifera; test: Growth inhibition of Brassica rapa subsp. oleifera assessed as total chlorophyll level at 5 x 10^-5 M after 7 days; parameters: scale not given: the % may be the effect or the level left
[13] = system: Brassica rapa subsp. oleifera; test: Growth inhibition of Brassica rapa subsp. oleifera assessed as chlorophyll b level at 1 x 10^-4 M after 7 days; parameters: scale not given: the % may be the effect or the level left
[14] = system: Brassica rapa subsp. oleifera; test: Growth inhibition of Brassica rapa subsp. oleifera assessed as total chlorophyll level at 3 x 10^-5 M after 7 days; parameters: scale not given: the % may be the effect or the level left
[15] = system: Brassica rapa subsp. oleifera; test: Growth inhibition of Brassica rapa subsp. oleifera assessed as root growth at 1 x 10^-4 M after 7 days
[16] = system: Brassica rapa subsp. oleifera; test: Growth inhibition of Brassica rapa subsp. oleifera assessed as chlorophyll a level at 5 x 10^-5 M after 7 days; parameters: scale not given: the % may be the effect or the level left

SMILES: O=C([O-])COc1ccc(Cl)cc1Cl.[Na+]
- Activity [1]: 4.82%
- Activity [2]: 3.16%
- Activity [3]: 7.32%
- Root length [4]: 3.1 mm
- Activity [5]: 12.57%
- Root length [6]: 3.3 mm
- Activity [7]: 18.67%
- Activity [8]: 1.68%
- Activity [9]: 2.1 mm
- Activity [10]: 17.82%
- Activity [11]: 4.84%
- Activity [12]: 16.35%
- Activity [13]: 6.1%
- Activity [14]: 25.12%
- Activity [15]: 2.6 mm
- Activity [16]: 11.51%
